# Like-named read-outs stand apart in the source and are kept apart here.
# Legend:
# Experimental logD = format: physicochemical; conditions: PBS (aqueous phase; partition solvent not stated), pH 7.4
# σ1R [1] = biological target: T1, σ1R (Mus musculus, UniProt O55242); experiment: In vivo PET-CT imaging with [^11C]HCC0929 in mice brain; design: species or system mice (BALB/c)
# guinea pig σ1 receptor [2] = biological target: T2, guinea pig σ1 receptor (Cavia porcellus, UniProt Q60492); experiment: Ex vivo σ1 receptor binding assay; conditions: for Selectivity (σ2R/σ1R): ratio of σ2R Ki to σ1R Ki
# T2 sequence (Q60492 whole entry): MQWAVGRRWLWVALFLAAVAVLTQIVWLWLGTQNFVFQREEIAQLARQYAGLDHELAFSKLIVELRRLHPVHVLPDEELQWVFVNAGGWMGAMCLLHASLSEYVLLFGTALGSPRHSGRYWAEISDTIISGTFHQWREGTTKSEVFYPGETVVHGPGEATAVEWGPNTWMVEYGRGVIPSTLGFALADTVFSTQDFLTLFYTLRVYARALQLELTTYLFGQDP
# σ1R [3] = biological target: T1, σ1R; experiment: In vivo PET-CT imaging with [^11C]HCC0923 in mice brain; design: species or system mice (BALB/c); conditions: self-blocking, 12.5 mg/kg i.v. 5 min before tracer
# guinea pig σ1 receptor [4] = biological target: T2, guinea pig σ1 receptor; conditions: read-out: σ1R Kd or Ki; Kd or Ki not specified; cited from earlier work
# guinea pig σ2 receptor = conditions: read-out: σ2R Ki; cited from earlier work
# T1 sequence (O55242 whole entry): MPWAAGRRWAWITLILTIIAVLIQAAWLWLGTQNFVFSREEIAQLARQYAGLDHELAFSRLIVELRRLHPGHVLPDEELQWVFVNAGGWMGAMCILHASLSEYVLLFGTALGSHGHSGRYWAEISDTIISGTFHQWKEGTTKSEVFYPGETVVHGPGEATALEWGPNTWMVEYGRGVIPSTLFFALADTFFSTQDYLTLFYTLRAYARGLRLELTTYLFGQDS
logD (Experimental logD),"reduction in [^11C]HCC0929 mice brain uptake (σ1R [1]; self-blocking, 2.88 mg/kg i.v. 5 min before tracer)",Ki (guinea pig σ1 receptor [2]),Selectivity (σ2R/σ1R) (guinea pig σ1 receptor [2]),reduction in [^11C]HCC0923 brain uptake (σ1R [3]),"reduction of [^11C]HCC0929 binding in mice brain (σ1R [1]; pretreatment 2.99 mg/kg i.v., change between peak at ∼5 min and lowest at 60 min)",SMILES,Ki (guinea pig σ1 receptor [4]),Ki (guinea pig σ2 receptor)
1.73 ± 0.08,~58%,5.6 ± 0.7 nM,272.8,–,–,"CN1CCN(CCCOc2ccc(=O)n(-c3ccc(Cl)c(Cl)c3)n2)CC1 [compound 15, 2-(3,4-Dichlorophenyl)-6-(3-(4-methylpiperazin-1-yl)propoxy)pyridazin-3(2H)-one]",–,–
0.89 ± 0.06,–,10.3 ± 1.1 nM,111.3,~54%,–,"COc1ccc(-n2nc(OCCCN3CCCCC3)ccc2=O)cc1 [compound 13, 2-(4-Methoxyphenyl)-6-(3-(piperidin-1-yl)propoxy)pyridazin-3(2H)-one]",–,–
–,–,–,–,–,~67%,CCCN1CCC=C(c2cc(-c3ccc(C)cc3)no2)C1 [PD 144418],4.3 ± 0.1 nM,1380 ± 179 nM

# Source: article PMC6900558 (Acta Pharmaceutica Sinica. B, 2019)
